{"source": "patent US20240099214A1", "about": "“PLANT DEFENCE GENE EXPRESSION” (UPL Corporation Limited, priority 2021, published 2024)", "key": {"[1]": {"test_system": "PR protein (gene 12, M69248.1)", "assay": "qRT-PCR expression of gene 12 in tomato leaves", "type": "in vivo, Tomato ecotype corbarino", "set-up": "key to RQ1 / RQ2 / RQ3 / RQ mean: relative expression normalized to a-tubulin housekeeping gene", "details": "for gene 12 (PR1 protein) expression: laminarin treatment group not specified", "method": "(§1) Tomato ecotype “corbarino” reported to be susceptible to TSWV infection was used in the experiment. Plants were grown in pots in a climatic chamber with a photoperiod of 16/8 hour at 25° C.\n(§2) The viral strain (TSWV PV PV-0393) was utilized in the experiment. The virus was mechanically inoculated and propagated on tomato “corbarino”. The inoculum was prepared in an ice-cooled mortar grounding 1 gr of infected tomato tissue in 10 ml of Na-phosphate buffer 0.01M. The fresh prepared inoculum was stored in ice before use. Tomato plants at BBCH16 were dusted with Carborundum 600 mesh and selected leaves were rubbed with some droplets of inoculum. After 5 min. plants were sprayed with sterile water to remove the excess of inoculum and preserve the cell turgor.\n(§3) Four treatments were compared: i) Mock inoculated; ii) TSWV; iii) 0.25% Laminarin; iv) 0.25% Laminarin+TSWV. In the last treatment the virus was inoculated 24 hrs after the laminarin application.\n(§4) Total RNA was extracted from systemic infected tomato leaves by using the Quick-RNA Plant Kit (Zymo Research) following the manufacturer instructions. The extractions were carried out using three plants after 12 h, 24 h, 48 h, 72 h, 7 days after inoculation. Leaves were instantly frozen in liquid nitrogen after cutting to avoid any deterioration of the sample as well as any defense reaction. The RNA concentration was quantified by measuring the absorbance at 260 nm using a Nanodrop 2000 (Thermofisher). The purity of all of the RNA samples was assessed at an absorbance ratio of OD260/280 and OD260/230, while its structural integrity was checked by agarose gel electrophoresis. Only high-quality RNA with OD 260/280 and OD 260/230>2 was used for subsequent steps. Single-stranded cDNA was synthesized from 1 μg of total RNA using an iScript™ Select cDNA Synthesis Kit and random hexamers as primers (Bio-Rad, Milan, Italy), according to the manufacturer's instructions. Three biological replicates were created from the 3 leaves collected to test 15 genes. Alpha tubulin was used as reference gene.\n(§5) qPCR reactions were performed with BioRad (Applied Biosystems, Foster City, CA, USA) using SYBR R Green. Each reaction was performed in 20 μl containing 10 μl of 2× Power SYBR Green PCR Master Mix (Life Technologies), 0.2-0.3 μM primers and cDNA samples diluted 1:20. Each qPCR reaction was performed in triplicate. Reactions were run using the cycling parameter described previously (Reid et al., 2006) and the qPCR data were analyzed by the Ct method (Pfaffl, 2001). In order to analyze the qPCR data, a-tubulin gene was used as housekeeping to determine the relative expression level of the other genes analyzed in this work. For the determination of qPCR efficiency of each primer pairs, a standard curve was performed using the following cDNA dilutions: 1:4, 1:16, 1:64; 1:256 and 1:1024. Every measurement was made in triplicate. The corresponding qPCR efficiencies (E) were calculated for every primer pair with the software 7300 System SDS software (Applied Biosystems, Foster City, CA, USA) according to the equation E=(10−1/slope−1)×100 (Rutledge and Stewart, 2008).\n(§6) The significance of the differences between the gene expressions levels were compared by one-way ANOVA (p=0.01) and the means were separated by Tukey post-hoc test using SPSS ver.26 ([…])."}, "[2]": {"test_system": "Pti6 (gene 15, U89257.1)", "assay": "qRT-PCR expression of gene 15 in tomato leaves", "type": "in vivo, Tomato ecotype corbarino", "set-up": "key: relative expression normalized to a-tubulin housekeeping gene", "method": "as §1, §2, §3, §4, §5, §6"}, "[3]": {"details": "Gene_12, 24 hr, treatment Laminarin"}, "[4]": {"details": "Gene_12, 24 hr, treatment Laminarin + virus"}, "[5]": {"details": "Gene_12, 48 hr, treatment Laminarin"}, "[6]": {"details": "Gene_12, 48 hr, treatment Laminarin + virus"}, "[7]": {"details": "Gene_12, 72 hr, treatment Laminarin"}, "[8]": {"details": "Gene_12, 72 hr, treatment Laminarin + virus"}, "[9]": {"details": "Gene_15, 12 hr, treatment Laminarin"}, "[10]": {"details": "Gene_15, 12 hr, treatment Laminarin + virus"}, "[11]": {"details": "Gene_15, 24 hr, treatment Laminarin"}, "[12]": {"details": "Gene_15, 24 hr, treatment Laminarin + virus"}, "[13]": {"details": "Gene_15, 48 hr, treatment Laminarin"}, "[14]": {"details": "Gene_15, 48 hr, treatment Laminarin + virus"}, "[15]": {"details": "Gene_15, 72 hr, treatment Laminarin"}, "[16]": {"details": "Gene_15, 72 hr, treatment Laminarin + virus"}}}
{"substance": "laminarin", "values": [{"measurement": "RQ1", "setting": "[1]; 12 hr, Laminarin + virus", "result": 10.097}, {"measurement": "RQ2", "setting": "[1]; 12 hr, Laminarin + virus", "result": 0.9948}, {"measurement": "RQ3", "setting": "[1]; 12 hr, Laminarin + virus", "result": 11.722}, {"measurement": "RQ mean", "setting": "[1]; 12 hr, Laminarin + virus", "result": 10.589}, {"measurement": "RQ1", "setting": "[1]; 12 hr, Laminarin alone", "result": 0.9616}, {"measurement": "RQ2", "setting": "[1]; 12 hr, Laminarin alone", "result": 11.039}, {"measurement": "RQ3", "setting": "[1]; 12 hr, Laminarin alone", "result": 10.693}, {"measurement": "RQ mean", "setting": "[1]; 12 hr, Laminarin alone", "result": 10.449}, {"measurement": "gene 12 (PR1 protein) expression", "setting": "[1]; 48 hr post treatment, not statistically significant", "result": "highly overexpressed"}, {"measurement": "gene 12 (PR1 protein) expression", "setting": "[1]; 72 hr, statistically significant", "result": "overexpression of gene 12 is slightly reduced"}, {"measurement": "activation of systemic acquired resistance (SAR), inferred from gene 12 overexpression", "setting": "[1]; 72 hr, tomato", "result": "activate the SAR"}, {"measurement": "RQ1", "setting": "[1]; [3]", "result": 11.678}, {"measurement": "RQ2", "setting": "[1]; [3]", "result": 11.217}, {"measurement": "RQ3", "setting": "[1]; [3]", "result": 10.555}, {"measurement": "RQ mean", "setting": "[1]; [3]", "result": 11.150}, {"measurement": "RQ1", "setting": "[1]; [4]", "result": 0.9321}, {"measurement": "RQ2", "setting": "[1]; [4]", "result": 11.344}, {"measurement": "RQ3", "setting": "[1]; [4]", "result": 11.191}, {"measurement": "RQ mean", "setting": "[1]; [4]", "result": 10.619}, {"measurement": "RQ1", "setting": "[1]; [5]", "result": 46.753}, {"measurement": "RQ3", "setting": "[1]; [5]", "result": 31.171}, {"measurement": "RQ mean", "setting": "[1]; [5]", "result": 60.670}, {"measurement": "RQ1", "setting": "[1]; [6]", "result": 42.751}, {"measurement": "RQ2", "setting": "[1]; [6]", "result": 56.022}, {"measurement": "RQ3", "setting": "[1]; [6]", "result": 37.918}, {"measurement": "RQ mean", "setting": "[1]; [6]", "result": 45.564}, {"measurement": "RQ1", "setting": "[1]; [7]", "result": 44.543}, {"measurement": "RQ2", "setting": "[1]; [7]", "result": 23.924}, {"measurement": "RQ3", "setting": "[1]; [7]", "result": 31.675}, {"measurement": "RQ mean", "setting": "[1]; [7]", "result": 33.381}, {"measurement": "RQ1", "setting": "[1]; [8]", "result": 36.333}, {"measurement": "RQ2", "setting": "[1]; [8]", "result": 29.356}, {"measurement": "RQ3", "setting": "[1]; [8]", "result": 21.584}, {"measurement": "RQ mean", "setting": "[1]; [8]", "result": 29.091}, {"measurement": "RQ1", "setting": "[2]; [9]", "result": 10.060}, {"measurement": "RQ2", "setting": "[2]; [9]", "result": 10.254}, {"measurement": "RQ3", "setting": "[2]; [9]", "result": 12.879}, {"measurement": "RQ mean", "setting": "[2]; [9]", "result": 11.065}, {"measurement": "RQ1", "setting": "[2]; [10]", "result": 12.002}, {"measurement": "RQ2", "setting": "[2]; [10]", "result": 16.131}, {"measurement": "RQ3", "setting": "[2]; [10]", "result": 13.764}, {"measurement": "RQ mean", "setting": "[2]; [10]", "result": 13.966}, {"measurement": "RQ1", "setting": "[2]; [11]", "result": 13.129}, {"measurement": "RQ2", "setting": "[2]; [11]", "result": 21.363}, {"measurement": "RQ3", "setting": "[2]; [11]", "result": 13.388}, {"measurement": "RQ mean", "setting": "[2]; [11]", "result": 15.960}, {"measurement": "RQ1", "setting": "[2]; [12]", "result": 15.392}, {"measurement": "RQ2", "setting": "[2]; [12]", "result": 14.812}, {"measurement": "RQ3", "setting": "[2]; [12]", "result": 12.195}, {"measurement": "RQ mean", "setting": "[2]; [12]", "result": 14.133}, {"measurement": "RQ1", "setting": "[2]; [13]", "result": 32.421}, {"measurement": "RQ2", "setting": "[2]; [13]", "result": 0.8602}, {"measurement": "RQ3", "setting": "[2]; [13]", "result": 19.066}, {"measurement": "RQ mean", "setting": "[2]; [13]", "result": 20.030}, {"measurement": "RQ1", "setting": "[2]; [14]", "result": 16.304}, {"measurement": "RQ2", "setting": "[2]; [14]", "result": 17.934}, {"measurement": "RQ3", "setting": "[2]; [14]", "result": 18.959}, {"measurement": "RQ mean", "setting": "[2]; [14]", "result": 17.732}, {"measurement": "RQ1", "setting": "[2]; [15]", "result": 49.281}, {"measurement": "RQ2", "setting": "[2]; [15]", "result": 36.255}, {"measurement": "RQ3", "setting": "[2]; [15]", "result": 43.025}, {"measurement": "RQ mean", "setting": "[2]; [15]", "result": 42.853}, {"measurement": "RQ1", "setting": "[2]; [16]", "result": 22.660}, {"measurement": "RQ2", "setting": "[2]; [16]", "result": 30.703}, {"measurement": "RQ3", "setting": "[2]; [16]", "result": 44.821}, {"measurement": "RQ mean", "setting": "[2]; [16]", "result": 32.728}]}
